Tests used:
Test in all cases: relative viability (nuclei count vs DMSO), 5 days (fraction); higher = more cells survive
Dinaciclib + Trametinib = compound: CCc1cnn2c(NCc3ccc[n+]([O-])c3)cc(N3CCCC[C@H]3CCO)nc12 [Dinaciclib] + CC(=O)Nc1cccc(-n2c(=O)n(C3CC3)c(=O)c3c(Nc4ccc(I)cc4F)n(C)c(=O)c(C)c32)c1 [Trametinib] (partner 0.02 µM)
How it was run: (§1)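 Each reported value is a median over duplicate plates. It expresses relative viability: treated-well nuclei count divided by vehicle-well nuclei count. Lung cancer cell lines in 1536-well plates were dosed by pin tool a day after seeding, alone with one drug or with a fixed anchor-drug dose plus five library-drug doses (not always all listed) in √10 steps, and nuclei were counted after 5 days.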

Dinaciclib + Palbociclib = compound: CCc1cnn2c(NCc3ccc[n+]([O-])c3)cc(N3CCCC[C@H]3CCO)nc12 [Dinaciclib] + CC(=O)c1c(C)c2cnc(Nc3ccc(N4CCNCC4)cn3)nc2n(C2CCCC2)c1=O [Palbociclib] (partner 0.5 µM)
How it was run: as §1

Dinaciclib + Tozasertib = compound: CCc1cnn2c(NCc3ccc[n+]([O-])c3)cc(N3CCCC[C@H]3CCO)nc12 [Dinaciclib] + Cc1cc(Nc2cc(N3CCN(C)CC3)nc(Sc3ccc(NC(=O)C4CC4)cc3)n2)n[nH]1 [Tozasertib] (partner 0.1 µM)
How it was run: as §1

Dinaciclib + Dasatinib = compound: CCc1cnn2c(NCc3ccc[n+]([O-])c3)cc(N3CCCC[C@H]3CCO)nc12 [Dinaciclib] + Cc1nc(Nc2ncc(C(=O)Nc3c(C)cccc3Cl)s2)cc(N2CCN(CCO)CC2)n1 [Dasatinib] (partner 0.075 µM)
How it was run: as §1

Dinaciclib + AZD7762 = compound: CCc1cnn2c(NCc3ccc[n+]([O-])c3)cc(N3CCCC[C@H]3CCO)nc12 [Dinaciclib] + NC(=O)Nc1cc(-c2cccc(F)c2)sc1C(=O)N[C@H]1CCCNC1 [AZD7762] (partner 0.2 µM)
How it was run: as §1

| Cell Line | relative viability (Dinaciclib + Trametinib; first compound 0.009487 µM) | relative viability (Dinaciclib + Trametinib; first compound 0.03 µM) | relative viability (Dinaciclib + Trametinib; first compound 0.09487 µM) | relative viability (Dinaciclib + Trametinib; first compound 0.3 µM) | relative viability (Dinaciclib + Palbociclib; first compound 0.009487 µM) | relative viability (Dinaciclib + Palbociclib; first compound 0.03 µM) | relative viability (Dinaciclib + Palbociclib; first compound 0.09487 µM) | relative viability (Dinaciclib + Palbociclib; first compound 0.3 µM) | relative viability (Dinaciclib + Tozasertib; first compound 0.009487 µM) | relative viability (Dinaciclib + Tozasertib; first compound 0.03 µM) | relative viability (Dinaciclib + Tozasertib; first compound 0.09487 µM) | relative viability (Dinaciclib + Tozasertib; first compound 0.3 µM) | relative viability (Dinaciclib + Dasatinib; first compound 0.009487 µM) | relative viability (Dinaciclib + Dasatinib; first compound 0.03 µM) | relative viability (Dinaciclib + Dasatinib; first compound 0.09487 µM) | relative viability (Dinaciclib + Dasatinib; first compound 0.3 µM) | relative viability (Dinaciclib + AZD7762; first compound 0.009487 µM) | relative viability (Dinaciclib + AZD7762; first compound 0.03 µM) | relative viability (Dinaciclib + AZD7762; first compound 0.09487 µM) | relative viability (Dinaciclib + AZD7762; first compound 0.3 µM) |
| --- | --- | --- | --- | --- | --- | --- | --- | --- | --- | --- | --- | --- | --- | --- | --- | --- | --- | --- | --- | --- |
| RERF-LC-KJ | 0.753 | 0.22 | 0.143 | 0.152 | 0.907 | 0.216 | 0.139 | 0.157 | 0.45 | 0.18 | 0.179 | 0.167 | 0.36 | 0.192 | 0.15 | 0.159 | 1.04 | 0.498 | 0.114 | 0.155 |
| LCLC-103H | 0.674 | 0.659 | 0.255 | 0.249 | 0.402 | 0.441 | 0.208 | 0.192 | 0.487 | 0.315 | 0.0924 | 0.0865 | 0.41 | 0.432 | 0.0877 | 0.0685 | 0.881 | 0.351 | 0.279 | 0.197 |
| NCI-H1915 | 0.343 | 0.225 | 0.114 | 0.0978 | 0.474 | 0.121 | 0.125 | 0.113 | 0.303 | 0.149 | 0.13 | 0.115 | 0.301 | 0.149 | 0.121 | 0.123 | 0.763 | 0.354 | 0.115 | 0.0982 |
| ChaGo-K-1 | 0.856 | 0.25 | 0.14 | 0.102 | 0.971 | 0.239 | 0.118 | 0.114 | 0.22 | 0.168 | 0.132 | 0.111 | 0.529 | 0.154 | 0.116 | 0.127 | 0.904 | 0.389 | 0.131 | 0.117 |
| PC-14 | 0.412 | 0.0589 | 0.0476 | 0.0471 | 0.215 | 0.0424 | 0.0361 | 0.0423 | 0.454 | 0.0566 | 0.0448 | 0.038 | 0.153 | 0.0351 | 0.0238 | 0.0244 | 0.389 | 0.0715 | 0.0519 | 0.0512 |
| NCI-H1437 | 0.403 | 0.212 | 0.134 | 0.135 | 0.245 | 0.203 | 0.117 | 0.119 | 0.356 | 0.165 | 0.141 | 0.131 | 0.411 | 0.102 | 0.103 | 0.0897 | 1.12 | 0.16 | 0.182 | 0.163 |
| NCI-H1734 | 0.595 | 0.278 | 0.146 | 0.136 | 0.26 | 0.135 | 0.122 | 0.126 | 0.208 | 0.13 | 0.133 | 0.111 | 0.373 | 0.122 | 0.142 | 0.119 | 0.505 | 0.108 | 0.108 | 0.089 |
| LK-2 | 0.574 | 0.152 | 0.133 | 0.125 | 0.543 | 0.109 | 0.107 | 0.0837 | 0.2 | 0.154 | 0.151 | 0.168 | 0.267 | 0.141 | 0.115 | 0.144 | 0.448 | 0.116 | 0.0518 | 0.0532 |
| HCC-15 | 0.329 | 0.248 | 0.116 | 0.112 | 0.673 | 0.292 | 0.107 | 0.132 | 0.407 | 0.0586 | 0.0549 | 0.0646 | 0.424 | 0.086 | 0.0767 | 0.095 | 1.18 | 0.88 | 0.113 | 0.0634 |
| HCC-366 | 0.274 | 0.0898 | 0.0214 | 0.0233 | 0.272 | 0.0382 | 0.0205 | 0.0359 | 0.136 | 0.0294 | 0.0259 | 0.0198 | 0.597 | 0.14 | 0.0199 | 0.033 | 0.406 | 0.0244 | 0.0268 | 0.0232 |
| NCI-H650 | 0.964 | 0.189 | 0.122 | 0.13 | 0.374 | 0.171 | 0.128 | 0.101 | 0.493 | 0.183 | 0.154 | 0.153 | 0.36 | 0.169 | 0.154 | 0.164 | 1.08 | 0.153 | 0.148 | 0.173 |
| NCI-H2347 | 0.301 | 0.247 | 0.159 | 0.154 | 0.506 | 0.321 | 0.21 | 0.212 | 0.425 | 0.17 | 0.138 | 0.174 | 0.344 | 0.246 | 0.173 | 0.171 | 0.78 | 0.226 | 0.2 | 0.185 |
| LXF-289 | 0.682 | 0.307 | 0.0823 | 0.103 | 0.598 | 0.213 | 0.0821 | 0.108 | 0.183 | 0.149 | 0.0561 | 0.0572 | 0.282 | 0.0717 | 0.0492 | 0.0472 | 1.18 | 0.453 | 0.0752 | 0.0836 |
| BEN | 1.44 | 0.981 | 0.349 | 0.291 | 0.458 | 0.386 | 0.287 | 0.296 | 0.568 | 0.638 | 0.268 | 0.348 | 0.362 | 0.435 | 0.157 | 0.153 | 0.894 | 0.566 | 0.217 | 0.287 |
| NCI-H1355 | 0.457 | 0.349 | 0.173 | 0.14 | 0.425 | 0.311 | 0.154 | 0.137 | 0.677 | 0.292 | 0.161 | 0.181 | 0.815 | 0.419 | 0.147 | 0.159 | 1.02 | 0.869 | 0.267 | 0.127 |

— the supplement of paper PMC10307832
